Results as given in US20160303127A1, “COMBINATION THERAPY WITH C-MET AND EGFR ANTAGONISTS” (Genentech, Inc., priority 2008, published 2016).
Several values for one entry are separate records, joined by “and”; a condition that tells them apart may be missing. Equal entries are not always repeated.

B1: MetMAb: Anti-c-met monovalent monoclonal antibody MetMAb (rhuOA5D5v2) (WO2007/063816) (antibody, chains of the INN, looked up, V domains shown)
VH: EVQLVESGGGLVQPGGSLRLSCAASGYTFTSYWLHWVRQAPGKGLEWVGMIDPSNSDTRFNPNFKDRFTISADTSKNTAYLQMNSLRAEDTAVYYCATYRSYVTPLDYWGQGTLVTVSS
VL: DIQMTQSPSSLSASVGDRVTITCKSSQSLLYTSSQKNYLAWYQQKPGKAPKLLIYWASTRESGVPSRFSGSGSGTDFTLTISSLQPEDFATYYCQQYYAYPWTFGQGTKVEIK
modifications: one-armed

What was measured:
Akt = assay: phospho-Akt in NCI-H596 hu-HGF-Tg-SCID xenograft tumors (immunoblot); format: in vivo, human; details: MetMAb 30 mg/kg 24 h, erlotinib 150 mg/kg 6 h prior to harvest, average of 5 animals
Protocol: NCI-H596 hu-HGF-Tg-SCID xenograft tumors: NCI-H596 xenografts were established in hu-HGF-Tg-SCID mice as described in Example 4. Tumors were allowed to grow to 200-300 mm^3 prior to treatment. Dosing was performed as described in Table 8. Briefly, MetMAb (30 mg/kg) or MetMAb buffer was dosed at time zero hours (0 hr) and methylcellulose tween vehicle (MCT) or erlotinib (150 mg/kg) was dosed at time 18 hours (18 hr). Mice were euthanized and tumors and plasma collected at time 24 hours (24 hr). Tumors were snap frozen in liquid nitrogen and then kept at −70° C. until they were processed for immunoprecipitation and immunoblotting.
Immunoprecipitations and Immunoblotting: To process tumors for protein analysis, tumors were first homogenized using a glass dounce with lysis buffer (Cell Signaling Technology, Inc., Danvers, Mass.), supplemented with 1 mM PMSF, additional protease inhibitor cocktail, and phosphatase inhibitor cocktail I and II (Sigma, Inc., St. Louis, Mo.). […] Protein concentrations were determined using the BCA™ Protein Assay Kit (Pierce, Inc., Rockford, Ill.) and samples were immunoblotted. […] Samples were then analyzed by SDS-PAGE and immunoblotting. […] Immunoblots were imaged and phospho-protein levels were quantified and normalized to total protein levels (e.g. pEGFR over total EGFR) using an Odyssey imager (LI-COR Biosciences, Lincoln, Nebr.). […]

EBC-1 shMet-4.5 tumors = assay: Combination efficacy of erlotinib with c-met knockdown (Dox) in the EBC-1 shMet-4.5 NSCLC xenograft model; format: in vivo, nude mice (nu/nu); details: EBC-1 shMet-4.5 xenograft
Protocol: Test material. Erlotinib (Tarceva™) was provided by OSI Pharmaceuticals to the Formulations Department at Genentech and was weighed out along with a sufficient amount of vehicle (methylcellulose tween (MCT)). Materials were stored in a refrigerator set to maintain a temperature range of 4° C. to 8° C. Anti-c-met monovalent monoclonal antibody MetMAb (rhuOA5D5v2) (WO2007/063816) was provided by the Antibody Engineering Department at Genentech, Inc., in a clear liquid form. The EBC-1 cell line was obtained from Japanese Collection of Research Bioresources (JCRB). Species. Forty nude mice (nu/nu) were obtained from Charles River Laboratories (CRL) and were acclimatized for at least one week prior to being put on study. Animals were housed in ventilated caging systems in rooms with filters supplying High-Efficiency Particulate Air (HEPA). Only animals that appeared to be healthy and were free of obvious abnormalities were used for the study. Study design. EBC-1 cells were cultured in growth media that consisted of RPMI 1640 media (Invitrogen), 2 mM L-glutamine, and 10% fetal bovine serum. To prepare cells for inoculation into mice, cells were trypsinized, washed with ten milliliters of sterile 1× phosphate buffered saline (PBS). A subset of cells was counted by trypan blue exclusion and the remainder of cells was resuspended in 100 μl of sterile 1× PBS to a concentration of 5×10^7 cells per milliliter. Mice were inoculated subcutaneously in the right sub-scapular region with 5×10^6 EBC-1 cells. […] Mice in Group 1 (control group) were treated with 100 μL vehicle control, methylcellulose tween (MCT), every day (QD) via oral gavage (PO) and were switched to drinking water containing 5% sucrose. […] Dox and sucrose water was changed every 2-3 days. Erlotinib and MCT were dosed for 14 days, stopped for 6 days and then resumed for the remainder of the study (20 days). […] All studies and handling of mice complied with the Institutional Animal Care and Use Committee (IACUC) guidelines. [table] Tumor and Body Weight Measurement. […] Fowler Company, Inc.; Newton, Mass.). The following formula was used with Excel v11.2 (Microsoft Corporation; Redmond, Wash.) to calculate tumor volume: […] Efficacy Data Analysis. Tumor inhibition was plotted using KaleidaGraph 3.6 (Synergy Software; Reading, Pa.). Percent growth inhibition (% Inh) at Day 17 was calculated as follows: […] Tumor incidence (TI) was determined by the number of measurable tumors in each group at Day 17. […] Mean tumor volume and standard error of the mean (SEM) were calculated using JMP software, version 5.1.2 (SAS Institute; Cary, N.C.). Data analysis and generation of p-values using either Student's t-test or the Dunnett's t-test was also done using JMP software, version 5.1.2. […] Mice were then grouped into four treatment arms; […] Vehicles, Group 2: Doxycycline (Dox), Group 3: erlotinib (100 mg/kg), and Group 4: erlotinib+Dox (See Table 6).

[1] = 10 mice per group, any day during the study

Molecule	pAkt/total Akt (Akt; listed as Erlotinib)	number of complete responses (CR; tumor regression of 100%) (EBC-1 shMet-4.5 tumors; [1])	number of partial responses (PR; tumor regression >50% but <100% of starting tumor volume) (EBC-1 shMet-4.5 tumors; [1])	reduction in tumor growth compared to the vehicle control (tumor inhibition) (EBC-1 shMet-4.5 tumors; nude mice, day 19, erlotinib 100 mg/kg PO QD, Dox in drinking water) [%]	pAkt/total Akt (Akt)
C#Cc1cccc(Nc2ncnc3cc(OCCOC)c(OCCOC)cc23)c1 [erlotinib, N-(3-ethynylphenyl)-6,7-bis(2-methoxyethoxy)-4-quinazolinamine]	45% (+/−25.7%) % of vehicle control and 45 (±25.7) % of vehicle control	no	no	−6	
B1					72% (+/−27.9%) % of vehicle control and 72 (±27.9) % of vehicle control
